The record followed here is PMC6519732 (Journal of medicinal chemistry, 2019).

The test system of one data set is MDA-MB-231 cells. To be noted: MDA-MB-231, 10 and 100 μM, 72 h.
The test system of a further data set is T24 cells. The following applies: T24, 10 and 100 μM, 72 h.
A short description of data set [1]: Metabolic stability in human liver microsomes. Format: in vitro ADME. In general terms: Liver microsomes are vesicles of endoplasmic reticulum, rich in cytochrome P450 enzymes.
Another data set concerns HepaRG cells. Put plainly: CellTiter-Blue cell viability assay, HepaRG. To be noted: 24 h of treatment, highest tested concentration (100 μM).
Another data set relates to HUH7 cells. To be noted: HUH7, 10 and 100 μM, 72 h.

As for `O=C(NO)c1ccc(CN2c3ccccc3Sc3cccnc32)cc1` [Compound 7i, 4-[(10H-Benzo[b]pyrido[2,3-e][1,4]thiazin-10-yl)methyl]-N-hydroxybenzamide], the “effect on proliferation (in words)” value in the data set on MDA-MB-231 cells, in the data set with T24 cells and in the data set with HUH7 cells was “inhibited proliferation” in each case. In addition, the “human liver microsomal stability (in words)” value in data set [1] was “metabolically quite stable”. Moreover, the half-life (as a rule, the time needed for the level to fall by half in the phase considered) at 2 μM in data set [1] (human, liver microsomes) is over 40 min. Further, the “Viability of HepaRG cells” value with HepaRG cells is “not affected”.
